Columns and labels:
ACHN cells = experiment: Transcriptional profiling by DNA microarray, ACHN cells; format: cell-based, human
Source text: Threshold cutoffs were set at fold change >1.4; p<0.01; and statistically significant in at least 2 experiments. The genes fatty acid CoA ligase 2 (FACL2), palmitoyl acyl-CoA oxidase 1 (ACOX1), and carnitine palmitoyl acyl-CoA transferase (CPT1A) are included for comparison based on published reports that they are PPARα responsive genes in HepG2 cells over expressing PPARα (Hsu et al., (2001) J. Biol. Chem. 276:27950-8; Lawrence et al., (2001) J. Biol. Chem. 276:31521-7).
Expression profiling: Expression profiling of RNA samples was performed essentially as described (Lockhart et al., (1996) Nat. Biotechnol. 14:1675-80) using the Affymetrix human U95Av2 array. Briefly, RNA was isolated from 100 mm cell culture dishes, DNased, and 15 μg used as a template for double stranded cDNA synthesis according to standard protocols (Invitrogen). […] The resultant cRNA products were purified using RNeasy columns (Qiagen), pooled, and quantitated spectrophotometrically. […]
(§1) Data Analysis: Affymetrix CEL files from GeneChip 4.0 (Affymetrix) were imported into Resolver 2.0 under an empirically derived Affymetrix error model (Rosetta Inpharmatics). […] Accordingly, the statistical significance (P-value) of a given expression data point takes into account the underlying error associated with the Affymetrix transcript abundance measurements as determined by this platform-specific error model. […]

HK-2 cells = experiment: Transcriptional profiling by DNA microarray, HK-2 cells; format: cell-based, human; settings: 300 nM GW9578, 24 hours
Description: Points corresponding to PDK-4 and ADRP are highlighted in the plot. Points falling outside of the inner lines are changed by greater than 2-fold; those falling outside the outer lines by greater than 3-fold.
Expression profiling: Expression profiling of RNA samples was performed essentially as described (Lockhart et al., (1996) Nat. Biotechnol. 14:1675-80) using the Affymetrix human U95Av2 array. Briefly, RNA was isolated from 100 mm cell culture dishes, DNased, and 15 μg used as a template for double stranded cDNA synthesis according to standard protocols (Invitrogen). Reverse transcription was primed using a T7-modified oligo-dT primer (5-[…]-d(T)24-3′) (SEQ ID NO: 1). In vitro transcription was then performed on each double stranded cDNA synthesis, according to the manufacturer's (Enzo Diagnostics) instructions. The resultant cRNA products were purified using RNeasy columns (Qiagen), pooled, and quantitated spectrophotometrically. […]
as §1

Structure (SMILES): CCCCCCCN(CCc1ccc(SC(C)(C)C(=O)O)cc1)C(=O)Nc1ccc(F)cc1F [GW9578, ureido-thioisobutyric acid]
- ADRP induction in ACHN cells (ACHN cells): significantly induced
- Increase of ADRP transcript versus controls (HK-2 cells): approximately 4 fold
- Increase of PDK-4 transcript versus controls (HK-2 cells): approximately 4 fold

From patent US20040106135A1, “Assay for PPAR ligand dependent gene modulation” (priority 2002, published 2004)
